Results: PMC5791972 (PLoS ONE, 2018)
pIC50: −log10 of the molar value. Where two headings read alike, the source gives them in different places.

How the values were obtained:
[1] = C57BL/6, mouse, in vivo
[2] = Pharmacokinetic studies in mice; conditions: male, C57BL/6, mouse, in vivo
CaMK2α (h) = CaMK2α (h) (Homo sapiens, UniProt Q9UQM7); test: enzyme assay; format: biochemical; conditions: 1.0E-06 M
5-HT7 (h) = 5-HT7 (h) (Homo sapiens, UniProt P34969); test: biochemical
PDE6 (non-selective) = molecular target: T1, PDE6 (non-selective) (Bos taurus, UniProt P11541+P23439); test: enzyme assay; format: biochemical, bovine; conditions: 1.0E-06 M
T1 construct: PDE6 bovine [3H]cGMP; tissue Cerep (contract assay); host or cells: bovine retina
T1 sequence (P11541 2-856 limits assumed): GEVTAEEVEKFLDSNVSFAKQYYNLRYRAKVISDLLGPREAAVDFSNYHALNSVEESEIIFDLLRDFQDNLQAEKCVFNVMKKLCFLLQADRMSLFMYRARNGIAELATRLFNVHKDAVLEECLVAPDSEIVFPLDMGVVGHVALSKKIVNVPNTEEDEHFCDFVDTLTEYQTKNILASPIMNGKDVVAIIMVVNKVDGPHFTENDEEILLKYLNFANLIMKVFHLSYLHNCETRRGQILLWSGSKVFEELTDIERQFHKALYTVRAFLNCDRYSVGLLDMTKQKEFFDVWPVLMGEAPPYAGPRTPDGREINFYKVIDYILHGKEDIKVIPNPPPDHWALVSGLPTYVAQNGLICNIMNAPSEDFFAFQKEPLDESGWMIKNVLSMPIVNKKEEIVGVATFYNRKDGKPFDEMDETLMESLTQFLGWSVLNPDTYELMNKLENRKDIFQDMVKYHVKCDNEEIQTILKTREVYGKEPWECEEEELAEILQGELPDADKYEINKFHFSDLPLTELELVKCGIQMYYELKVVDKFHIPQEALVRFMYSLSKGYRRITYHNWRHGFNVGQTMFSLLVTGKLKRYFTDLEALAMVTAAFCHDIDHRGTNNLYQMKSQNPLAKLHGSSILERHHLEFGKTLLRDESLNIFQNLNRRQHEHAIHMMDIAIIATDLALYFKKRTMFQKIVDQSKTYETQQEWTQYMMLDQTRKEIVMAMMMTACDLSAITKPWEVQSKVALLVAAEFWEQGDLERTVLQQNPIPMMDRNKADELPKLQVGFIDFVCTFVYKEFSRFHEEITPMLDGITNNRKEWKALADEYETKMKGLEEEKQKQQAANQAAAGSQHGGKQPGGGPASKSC
T1 sequence (P23439 2-850 limits assumed): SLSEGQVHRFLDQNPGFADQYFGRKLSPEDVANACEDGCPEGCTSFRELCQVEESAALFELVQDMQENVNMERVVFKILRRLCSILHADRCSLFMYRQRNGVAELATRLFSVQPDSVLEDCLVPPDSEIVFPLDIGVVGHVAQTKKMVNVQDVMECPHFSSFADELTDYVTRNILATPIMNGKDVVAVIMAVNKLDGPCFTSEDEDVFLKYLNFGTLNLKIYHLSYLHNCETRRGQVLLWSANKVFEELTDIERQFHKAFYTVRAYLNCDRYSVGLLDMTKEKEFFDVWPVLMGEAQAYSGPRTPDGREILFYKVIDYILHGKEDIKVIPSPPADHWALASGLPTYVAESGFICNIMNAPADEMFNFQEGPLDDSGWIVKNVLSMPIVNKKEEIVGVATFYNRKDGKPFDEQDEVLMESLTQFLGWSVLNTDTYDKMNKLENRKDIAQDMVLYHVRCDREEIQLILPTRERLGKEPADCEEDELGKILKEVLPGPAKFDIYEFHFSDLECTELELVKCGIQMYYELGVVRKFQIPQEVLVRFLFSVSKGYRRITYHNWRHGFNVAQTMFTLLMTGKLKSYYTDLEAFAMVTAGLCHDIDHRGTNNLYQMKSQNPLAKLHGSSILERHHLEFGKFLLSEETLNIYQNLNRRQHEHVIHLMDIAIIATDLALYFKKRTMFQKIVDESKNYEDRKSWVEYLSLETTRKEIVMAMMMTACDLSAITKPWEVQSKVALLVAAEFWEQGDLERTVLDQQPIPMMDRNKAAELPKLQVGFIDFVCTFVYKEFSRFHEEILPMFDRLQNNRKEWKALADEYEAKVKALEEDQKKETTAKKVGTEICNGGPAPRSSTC

hTRPC1/hTRPC5 = molecular target: T2, hTRPC1/hTRPC5 (Homo sapiens, UniProt Q9UL62); test: Whole-cell manual patch clamp; format: cell-based
T2 construct: The cDNAs for various full-length ion channels were subcloned into pcDNA5/TO; expressed in transfected cells; host or cells: heterologous co-expression
T2 sequence (Q9UL62 whole entry): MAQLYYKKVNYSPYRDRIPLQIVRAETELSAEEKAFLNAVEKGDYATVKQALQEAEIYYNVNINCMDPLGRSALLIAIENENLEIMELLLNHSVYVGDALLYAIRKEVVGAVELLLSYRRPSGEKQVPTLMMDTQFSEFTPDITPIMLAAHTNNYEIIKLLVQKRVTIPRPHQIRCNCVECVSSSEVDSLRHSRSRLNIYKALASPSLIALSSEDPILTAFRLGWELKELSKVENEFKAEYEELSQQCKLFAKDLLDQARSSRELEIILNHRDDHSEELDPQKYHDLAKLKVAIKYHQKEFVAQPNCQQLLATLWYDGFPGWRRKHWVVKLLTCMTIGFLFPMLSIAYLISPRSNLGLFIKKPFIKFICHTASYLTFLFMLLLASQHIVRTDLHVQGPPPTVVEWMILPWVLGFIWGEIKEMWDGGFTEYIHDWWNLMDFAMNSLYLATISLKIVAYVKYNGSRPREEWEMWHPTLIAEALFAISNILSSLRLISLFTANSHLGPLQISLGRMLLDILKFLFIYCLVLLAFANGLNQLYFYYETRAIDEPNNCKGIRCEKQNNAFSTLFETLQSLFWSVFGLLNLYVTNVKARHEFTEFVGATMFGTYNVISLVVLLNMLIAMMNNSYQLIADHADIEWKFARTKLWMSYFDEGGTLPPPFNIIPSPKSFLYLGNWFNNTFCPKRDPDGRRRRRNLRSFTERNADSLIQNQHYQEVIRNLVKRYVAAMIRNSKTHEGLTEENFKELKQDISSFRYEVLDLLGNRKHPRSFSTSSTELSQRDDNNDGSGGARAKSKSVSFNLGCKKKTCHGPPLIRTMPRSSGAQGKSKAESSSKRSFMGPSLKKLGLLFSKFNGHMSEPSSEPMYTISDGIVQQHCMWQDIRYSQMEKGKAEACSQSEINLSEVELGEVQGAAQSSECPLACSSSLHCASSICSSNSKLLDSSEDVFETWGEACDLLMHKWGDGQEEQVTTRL
T2 sequence (P48995 whole entry partner): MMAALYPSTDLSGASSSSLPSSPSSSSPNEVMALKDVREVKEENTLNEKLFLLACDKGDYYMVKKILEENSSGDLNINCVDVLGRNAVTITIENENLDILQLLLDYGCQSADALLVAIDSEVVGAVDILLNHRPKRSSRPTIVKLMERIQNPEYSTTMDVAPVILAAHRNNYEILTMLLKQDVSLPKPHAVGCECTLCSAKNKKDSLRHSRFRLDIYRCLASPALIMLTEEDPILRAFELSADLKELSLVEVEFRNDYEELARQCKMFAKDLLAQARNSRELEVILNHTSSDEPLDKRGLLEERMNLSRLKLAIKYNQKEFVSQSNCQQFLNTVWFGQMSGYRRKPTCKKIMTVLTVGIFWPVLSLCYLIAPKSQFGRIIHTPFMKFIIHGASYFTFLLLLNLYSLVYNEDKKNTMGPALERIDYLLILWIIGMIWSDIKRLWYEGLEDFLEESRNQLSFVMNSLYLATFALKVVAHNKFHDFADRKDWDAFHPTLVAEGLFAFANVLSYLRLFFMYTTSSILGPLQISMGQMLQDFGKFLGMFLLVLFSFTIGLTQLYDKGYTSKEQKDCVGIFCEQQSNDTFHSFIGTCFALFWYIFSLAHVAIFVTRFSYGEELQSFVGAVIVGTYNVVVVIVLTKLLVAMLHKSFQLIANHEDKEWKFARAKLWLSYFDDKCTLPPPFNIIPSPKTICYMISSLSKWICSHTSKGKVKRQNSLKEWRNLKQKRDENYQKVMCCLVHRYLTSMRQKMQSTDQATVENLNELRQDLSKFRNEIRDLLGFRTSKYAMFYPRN

COX1 (h) = molecular target: T3, COX1 (h) (Homo sapiens, UniProt P23219); test: biochemical; conditions: 1.0E-06 M
T3 construct: Cerep (contract assay); host or cells: Sf9 cells
T3 sequence (P23219 24-599): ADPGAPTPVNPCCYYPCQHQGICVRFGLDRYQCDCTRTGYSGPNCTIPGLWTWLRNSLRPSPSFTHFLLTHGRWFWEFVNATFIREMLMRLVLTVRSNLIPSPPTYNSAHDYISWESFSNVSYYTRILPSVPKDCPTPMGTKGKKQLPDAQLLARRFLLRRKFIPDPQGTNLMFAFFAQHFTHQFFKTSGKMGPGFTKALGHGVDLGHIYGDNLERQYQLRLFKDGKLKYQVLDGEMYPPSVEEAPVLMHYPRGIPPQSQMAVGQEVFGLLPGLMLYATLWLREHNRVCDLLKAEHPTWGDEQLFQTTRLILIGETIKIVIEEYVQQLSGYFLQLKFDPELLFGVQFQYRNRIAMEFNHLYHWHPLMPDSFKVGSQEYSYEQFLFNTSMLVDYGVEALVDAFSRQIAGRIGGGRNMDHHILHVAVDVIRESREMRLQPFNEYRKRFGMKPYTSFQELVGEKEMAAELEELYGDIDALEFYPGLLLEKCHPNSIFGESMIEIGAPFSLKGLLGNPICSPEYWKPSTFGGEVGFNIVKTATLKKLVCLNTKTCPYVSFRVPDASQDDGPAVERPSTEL

ETA (h) = molecular target: T4, ETA (h) (Homo sapiens, UniProt P25101); format: binding; conditions: 1.0E-06 M
T4 construct: host or cells: CHO cells
T4 sequence (P25101 21-427): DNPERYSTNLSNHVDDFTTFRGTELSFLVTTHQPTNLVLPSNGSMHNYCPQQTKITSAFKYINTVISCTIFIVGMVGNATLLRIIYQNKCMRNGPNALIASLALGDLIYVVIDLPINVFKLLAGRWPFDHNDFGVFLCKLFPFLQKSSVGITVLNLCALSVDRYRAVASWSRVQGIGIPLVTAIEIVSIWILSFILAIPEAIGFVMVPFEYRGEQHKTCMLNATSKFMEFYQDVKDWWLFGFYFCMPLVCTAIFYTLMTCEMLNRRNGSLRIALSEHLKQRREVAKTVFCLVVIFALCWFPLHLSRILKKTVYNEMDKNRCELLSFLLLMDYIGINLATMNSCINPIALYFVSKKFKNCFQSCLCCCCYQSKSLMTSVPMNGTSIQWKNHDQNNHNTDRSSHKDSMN

V1a (h) = molecular target: T5, V1a (h) (Homo sapiens, UniProt P37288); format: binding; conditions: 1.0E-06 M
T5 construct: host or cells: CHO cells
T5 sequence (P37288 whole entry): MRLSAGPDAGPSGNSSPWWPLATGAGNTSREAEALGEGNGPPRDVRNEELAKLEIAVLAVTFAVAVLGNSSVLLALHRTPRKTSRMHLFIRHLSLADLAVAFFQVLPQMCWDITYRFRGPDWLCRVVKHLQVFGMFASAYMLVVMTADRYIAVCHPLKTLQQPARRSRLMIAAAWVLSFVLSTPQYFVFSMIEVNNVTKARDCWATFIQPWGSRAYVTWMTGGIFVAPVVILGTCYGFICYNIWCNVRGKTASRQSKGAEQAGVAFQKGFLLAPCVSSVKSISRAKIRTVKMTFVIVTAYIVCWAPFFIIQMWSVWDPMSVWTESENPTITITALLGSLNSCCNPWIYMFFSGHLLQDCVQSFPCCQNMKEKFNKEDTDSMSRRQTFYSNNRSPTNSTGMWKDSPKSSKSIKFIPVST

Sequence of 5-HT7 (h) (P34969 whole entry): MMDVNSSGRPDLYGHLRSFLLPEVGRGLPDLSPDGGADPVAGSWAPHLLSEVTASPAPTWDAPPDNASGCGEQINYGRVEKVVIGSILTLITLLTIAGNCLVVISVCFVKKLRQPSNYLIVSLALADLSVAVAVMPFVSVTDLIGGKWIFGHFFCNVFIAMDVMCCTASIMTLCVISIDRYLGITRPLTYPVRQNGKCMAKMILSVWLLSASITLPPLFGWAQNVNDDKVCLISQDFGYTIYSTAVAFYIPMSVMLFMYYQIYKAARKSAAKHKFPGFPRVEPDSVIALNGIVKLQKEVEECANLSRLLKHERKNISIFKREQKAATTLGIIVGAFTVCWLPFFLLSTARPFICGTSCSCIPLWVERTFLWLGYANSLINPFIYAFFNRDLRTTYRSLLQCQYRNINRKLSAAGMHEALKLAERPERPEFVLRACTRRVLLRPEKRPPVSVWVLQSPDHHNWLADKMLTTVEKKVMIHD

Cn1c(=O)n(CCCO)c(=O)c2c1nc(Oc1cccc(Cl)c1)n2Cc1ccc(Cl)cc1 [HC-070]
concentration in brain ([1]; iv, 1 mg/kg, 2 h): 299 ± 11 nmol/kg | concentration in brain tissue ([1]; po, 10 mg/kg, 2 h): 525 ± 72 nmol/kg | unbound brain concentration ([1]; po, 10 mg/kg, 2 h): 1.5 nmol/kg | MRTdisp ([1]; male, iv, 1 mg/kg): 1.9 h | MRTtot ([1]; male, po, 10 mg/kg): 4.5 h | half-life ([2]; iv, 1 mg/kg): 3.5 h | half-life ([2]; po, 10 mg/kg): 3.3 h

Cn1c(=O)n(CCCO)c(=O)c2c1nc(Oc1cccc(OC(F)(F)F)c1)n2Cc1ccc(Cl)cc1 [HC-608]
inhibition at 1 µM (CaMK2α (h); read-out: % Inhibition 1st): -4% | inhibition at 1 µM (CaMK2α (h); read-out: % Inhibition 2nd): 2.8% | inhibition at 1 µM (CaMK2α (h); read-out: % Inhibition Mean): -0.6% | inhibition at 1 µM (5-HT7 (h); read-out: % Inhibition 1st): 12.1% | inhibition at 1 µM (5-HT7 (h); read-out: % Inhibition 2nd): 10.9% | inhibition at 1 µM (5-HT7 (h); read-out: % Inhibition Mean): 11.5% | inhibition at 1 µM (PDE6 (non-selective); read-out: % Inhibition 1st): 25.3% | inhibition at 1 µM (PDE6 (non-selective); read-out: % Inhibition 2nd): 8.8% | inhibition at 1 µM (PDE6 (non-selective); read-out: % Inhibition Mean): 17% | pIC50 (hTRPC1/hTRPC5; 20 μM carbachol/M1R): ~8.33 | pIC50 (hTRPC1/hTRPC5; La3+ (80 μM)): ~8.85 | inhibition at 1 µM (COX1 (h); read-out: % Inhibition 1st): -1.5% | inhibition at 1 µM (COX1 (h); read-out: % Inhibition 2nd): 27.2% | inhibition at 1 µM (COX1 (h); read-out: % Inhibition Mean): 12.9% | inhibition at 1 µM (ETA (h); read-out: % Inhibition 1st): -33.9% | inhibition at 1 µM (ETA (h); read-out: % Inhibition 2nd): 6.7% | inhibition at 1 µM (ETA (h); read-out: % Inhibition Mean): -13.6% | inhibition at 1 µM (V1a (h); read-out: % Inhibition 1st): -9.9% | inhibition at 1 µM (V1a (h); read-out: % Inhibition 2nd): 12.5% | inhibition at 1 µM (V1a (h); read-out: % Inhibition Mean): 1.3%
